# Tested on: melanoma cells
# Assay: In vitro treatment of tumor cells in culture, flow cytometry (cell cycle analysis, cell death)
# Type: cell-based
# Details: melanoma cells treated in vitro
# Procedure: Tumor cells (B16.F1, NIT-1, or MCF7) were thawed from liquid nitrogen. The tumor cells were transferred into a 15 milliliter (ml) conical tube using a sterile bulb pipette. Using a balance, the tubes were balanced with cells and spun in the centrifuge. The liquid was removed using the vacuum, leaving the pellet of cells. The cells were mixed using two mls of the RPMI. In a 24 well plate, 1 ml of RPMI was placed in each well. One ml of cells was placed into the first well and the second ml was missed into the second well, then one ml was transferred from the second well into the third. The process was repeated until one ml will remain for the last well (serial dilutions). After two to three days the cells were confluent enough to transfer from a well into a flask. After around 24 hours the treatments were added to the appropriate flasks (control, chloroquine, Avastin, both). After 48 hrs. the cells were stained using lysotracker and propidium idodide. The plate was run in the flow cytometer to check the growth arrest and the amount of lysosomic activity as well as the amount of cell death.
substance,measurement,value
"avastin: humanized monoclonal antibody against VEGF-A, trade name Avastin, Genentech/Roche",growth arrest by cell cycle analysis,growth arresting the melanoma cells in G0-G1 phase

# — US9073985B2, “Methods and products for treating proliferative diseases” (The Regents of the University of Colorado, a body corporate, priority 2008, dated 2015)
